In patent US11325938B2, “CD73 inhibitors” (ORIC Pharmaceuticals, Inc., priority 2018, dated 2022):

Target: CD73 (Homo sapiens (Human), UniProt P21589)
Assay: Biochemical assay: inhibition of CD73 activity (AMP hydrolysis, Malachite Green readout)
Conditions: CD73 0.3208 nM, AMP 15 μM, 25 mM Tris-HCl pH 7.4, RT, absorbance 620 nm
In short: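 Human CD73 (320 pM final) preincubated 15 min at RT with compounds (10-point ½-log titration from 100 μM, duplicates) in 25 mM Tris-HCl pH 7.4, 5 mM MgCl2, 0.01% Brij-35, 0.01% BSA. 15 μM AMP added, 10 min at RT; released phosphate read by Malachite Green absorbance; IC50 determined.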

Chain of CD73 (P21589 27-574): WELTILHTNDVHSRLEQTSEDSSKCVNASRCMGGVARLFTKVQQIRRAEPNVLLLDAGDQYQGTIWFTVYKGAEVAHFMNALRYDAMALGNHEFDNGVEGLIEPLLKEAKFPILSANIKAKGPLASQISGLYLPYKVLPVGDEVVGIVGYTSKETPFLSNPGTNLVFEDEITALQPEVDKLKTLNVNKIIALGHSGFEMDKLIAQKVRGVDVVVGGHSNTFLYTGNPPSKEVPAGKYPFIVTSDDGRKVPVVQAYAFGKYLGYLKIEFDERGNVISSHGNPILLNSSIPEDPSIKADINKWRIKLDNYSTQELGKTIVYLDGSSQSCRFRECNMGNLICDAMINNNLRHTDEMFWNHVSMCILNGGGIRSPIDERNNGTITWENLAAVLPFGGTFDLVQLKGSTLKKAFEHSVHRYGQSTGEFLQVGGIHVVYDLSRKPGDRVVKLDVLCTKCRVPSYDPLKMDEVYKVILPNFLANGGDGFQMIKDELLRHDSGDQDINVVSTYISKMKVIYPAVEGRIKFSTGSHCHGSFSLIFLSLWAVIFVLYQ

| IC50 | SMILES |
| --- | --- |
| ≤ 100 nM | C[C@@H](P(=O)(O)O)S(=O)(=O)C[C@H]1O[C@@H](n2ncc3c(NC4CCCC4)nc(Cl)nc32)[C@H](O)[C@@H]1O [Example 6, ((S)-1-((((2S,3S,4R,5R)-5-(6-Chloro-4-(cyclopentylamino)-1H-pyrazolo[3,4-d]pyrimidin-1-yl)-3,4-dihydroxytetrahydrofuran-2-yl)methyl)sulfonyl)ethyl)phosphonic acid] |
| ≤ 100 nM | C[C@H](O)[C@@H](OC[C@H]1O[C@@H](n2ncc3c(NC4CCCC4)nc(Cl)nc32)[C@H](O)[C@@H]1O)P(=O)(O)O [Example 11, ((1S,2S)-1-(((2R,3S,4R,5R)-5-(6-chloro-4-(cyclopentylamino)-1H-pyrazolo[3,4-d]pyrimidin-1-yl)-3,4-dihydroxytetrahydrofuran-2-yl)methoxy)-2-hydroxypropyl)phosphonic acid] |
| ≤ 100 nM | CC(CO)(OC[C@H]1O[C@@H](n2ncc3c(N[C@H]4CC[C@@H]5CCC[C@@H]54)nc(Cl)nc32)[C@H](O)[C@@H]1O)P(=O)(O)O (stereo partly drawn) [Example 141, (2-(((2R,3S,4R,5R)-5-(6-chloro-4-(((1S,3aS,6aS)-octahydropentalen-1-yl)amino)-1H-pyrazolo[3,4-d]pyrimidin-1-yl)-3,4-dihydroxytetrahydrofuran-2-yl)methoxy)-1-hydroxypropan-2-yl)phosphonic acid] |
| ≤ 100 nM | CC#CC[C@](CO)(OC[C@H]1O[C@@H](n2ncc3c(NC4CCCC4)nc(Cl)nc32)[C@H](O)[C@@H]1O)P(=O)(O)O [Example 98, ((S)-2-(((2R,3S,4R,5R)-5-(6-chloro-4-(cyclopentylamino)-1H-pyrazolo[3,4-d]pyrimidin-1-yl)-3,4-dihydroxytetrahydrofuran-2-yl)methoxy)-1-hydroxyhex-4-yn-2-yl)phosphonic acid] |
| ≤ 100 nM | C[C@](CO)(OC[C@H]1O[C@@H](n2ncc3c(N[C@@H]4CCc5ccc(F)cc54)nc(Cl)nc32)[C@H](O)[C@@H]1O)P(=O)(O)O [Example 108, ((S)-2-(((2R,3S,4R,5R)-5-(6-chloro-4-(((R)-6-fluoro-2,3-dihydroxy-1H-inden-1-yl)amino)-1H-pyrazolo[3,4-d]pyrimidin-1-yl)-3,4-dihydroxytetrahydrofuran-2-yl)methoxy)-1-hydroxypropan-2-yl)phosphonic acid] |
| ≤ 100 nM | O=P(O)(O)C(CO)OC[C@@H]1C[C@@H](O)[C@H](n2ncc3c(NC4CCCC4)nc(Cl)nc32)O1 (stereo partly drawn) [Example 40, (1-(((2S,4R,5R)-5-(6-chloro-4-(cyclopentylamino)-1H-pyrazolo[3,4-d]pyrimidin-1-yl)-4-hydroxytetrahydrofuran-2-yl)methoxy)-2-hydroxyethyl)phosphonic acid] |
| ≤ 100 nM | C[C@@](CO)(OC[C@H]1O[C@@H](n2ncc3c(NC4CC5(CCC5)C4)nc(Cl)nc32)[C@H](O)[C@@H]1O)P(=O)(O)O [Example 126, ((R)-2-(((2R,3S,4R,5R)-5-(6-chloro-4-(spiro[3.3]heptan-2-ylamino)-1H-pyrazolo[3,4-d]pyrimidin-1-yl)-3,4-dihydroxytetrahydrofuran-2-yl)methoxy)-1-hydroxypropan-2-yl)phosphonic acid] |
| ≤ 100 nM | COCC(C)(OC[C@H]1O[C@@H](n2ncc3c(NC4CCCC4)cc(Cl)nc32)[C@H](O)[C@@H]1O)P(=O)(O)O (stereo partly drawn) [Example 111, (2-(((2R,3S,4R,5R)-5-(6-chloro-4-(cyclopentylamino)-1H-pyrazolo[3,4-b]pyridin-1-yl)-3,4-dihydroxytetrahydrofuran-2-yl)methoxy)-1-methoxypropan-2-yl)phosphonic acid] |
| ≤ 100 nM | CCOC(=O)C(OC[C@H]1O[C@@H](n2ncc3c(NC4CCCC4)nc(Cl)nc32)[C@H](O)[C@@H]1O)P(=O)(O)O (stereo partly drawn) [Example 1, (1-(((2R,3S,4R,5R)-5-(6-Chloro-4-(cyclopentylamino)-1H-pyrazolo[3,4-d]pyrimidin-1-yl)-3,4-dihydroxytetrahydrofuran-2-yl)methoxy)-2-ethoxy-2-oxoethyl)phosphonic acid] |
| ≤ 100 nM | COCC(CC(=O)O)(OC[C@H]1O[C@@H](n2ncc3c(NC4CCCC4)nc(Cl)nc32)[C@H](O)[C@@H]1O)P(=O)(O)O (mixture of isomers) [Example 210, rac-3-(((2R,3S,4R,5R)-5-(6-chloro-4-(cyclopentyalmino)-1H-pyrazolo[3,4-d]pyrimidin-1-yl)-3,4-dihydroxytetrahydrofuran-2-yl)methoxy)-4-methoxy-3-phosphonobutanoic acid] |
| ≤ 100 nM | COC[C@](CO)(OC[C@H]1O[C@@H](n2ncc3c(NC4CCCC4)nc(Cl)nc32)[C@H](O)[C@@H]1O)P(=O)(O)O [Example 150, ((R)-2-(((2R,3S,4R,5R)-5-(6-chloro-4-(cyclopentylamino)-1H-pyrazolo[3,4-d]pyrimidin-1-yl)-3,4-dihydroxytetrahydrofuran-2-yl)methoxy)-1-hydroxy-3-methoxypropan-2-yl)phosphonic acid] |
| ≤ 100 nM | O=P(O)(O)CS(=O)(=O)C[C@H]1O[C@@H](n2nnc3c(NC4CCCC4)cc(Cl)nc32)[C@H](O)[C@@H]1O [Example 16, (((((2S,3S,4R,5R)-5-(5-Chloro-7-(cyclopentylamino)-3H-[1,2,3]triazolo[4,5-b]pyridin-3-yl)-3,4-dihydroxytetrahydrofuran-2-yl)methyl)sulfonyl)methyl)phosphonic acid] |
| ≤ 100 nM | O=P(O)(O)[C@](CO)(Cc1nn[nH]n1)OC[C@H]1O[C@@H](n2ncc3c(NC4CCCC4)nc(CO)nc32)[C@H](O)[C@@H]1O (racemic) [Example 217, rac-((R)-2-(((2S,3R,4S,5S)-5-(4-(cyclopentylamino)-6-(hydroxymethyl)-1H-pyrazolo[3,4-d]pyrimidin-1-yl)-3,4-dihydroxytetrahydrofuran-2-yl)methoxy)-1-hydroxy-3-(2H-tetrazol-5-yl)propan-2-yl)phosphonic acid] |
| ≤ 100 nM | C[C@](CO)(OC[C@H]1O[C@@H](n2ncc3c(NC4CC5(CCC5)C4)nc(Cl)nc32)[C@H](O)[C@@H]1O)P(=O)(O)O [Example 123, ((S)-2-(((2R,3S,4R,5R)-5-(6-chloro-4-(spiro[3.3]heptan-2-ylamino)-1H-pyrazolo[3,4-d]pyrimidin-1-yl)-3,4-dihydroxytetrahydrofuran-2-yl)methoxy)-1-hydroxypropan-2-yl)phosphonic acid] |
| ≤ 100 nM | O=P(O)(O)C(CO)(CO)OC[C@H]1O[C@@H](n2ncc3c(N[C@@H]4CC[C@H]5CCC[C@H]54)nc(Cl)nc32)[C@H](O)[C@@H]1O (racemic) [Example 164, rac-(2-(((2R,3S,4R,5R)-5-(6-chloro-4-(((1R,3aR,6aR)-octahydropentalen-1-yl)amino)-1H-pyrazolo[3,4-d]pyrimidin-1-yl)-3,4-dihydroxytetrahydrofuran-2-yl)methoxy)-1,3-dihydroxypropan-2-yl)phosphonic acid] |
| ≤ 100 nM | O=P(O)(O)C(CO)(CO)OC[C@H]1O[C@@H](n2ncc3c(NC4CCCC4)cc(Cl)nc32)[C@H](O)[C@@H]1O (racemic) [Example 200, rac-(2-(((2R,3S,4R,5R)-5-(6-chloro-4-(cyclopentylamino)-1H-pyrazolo[3,4-b]pyridin-1-yl)-3,4-dihydroxytetrahydrofuran-2-yl)methoxy)-1,3-dihydroxypropan-2-yl)phosphonic acid] |
| ≤ 100 nM | CC(CO)(OC[C@H]1O[C@@H](n2ncc3c(NC4CCCC4)nc(C#CCO)nc32)[C@H](O)[C@@H]1O)P(=O)(O)O (stereo partly drawn) [Example 89, (2-(((2R,3S,4R,5R)-5-(4-(Cyclopentylamino)-6-(3-hydroxyprop-1-yn-1-yl)-1H-pyrazolo[3,4-d]pyrimidin-1-yl)-3,4-dihydroxytetrahydrofuran-2-yl)methoxy)-1-hydroxypropan-2-yl)phosphonic acid] |
| 100 to 1000 nM | COCC(OC[C@@H]1O[C@H](n2ncc3c(NC4CCCC4)nc(Cl)nc32)[C@@H](O)[C@H]1O)(C(=O)O)P(=O)(O)O (mixture of isomers) [Example 220, rac-(R)-2-(((2S,3R,4S,5S)-5-(6-chloro-4-(cyclopentylamino)-1H-pyrazolo[3,4-d]pyrimidin-1-yl)-3,4-dihydroxytetrahydrofuran-2-yl)methoxy)-3-methoxy-2-phosphonopropanoic acid] |
| ≤ 100 nM | COCC(C)(OC[C@H]1O[C@@H](n2nnc3c(NC4CCCC4)nc(Cl)nc32)[C@H](O)[C@@H]1O)P(=O)(O)O (stereo partly drawn) [Example 82, (2-(((2R,3S,4R,5R)-5-(5-chloro-7-(cyclopentylamino)-3H-[1,2,3]triazolo[4,5-d]pyrimidin-3-yl)-3,4-dihydroxytetrahydrofuran-2-yl)methoxy)-1-methoxypropan-2-yl)phosphonic acid] |
| ≤ 100 nM | O=P(O)(O)C(COCCO)OC[C@H]1O[C@@H](n2ncc3c(NC4CCCC4)nc(Cl)nc32)[C@H](O)[C@@H]1O (mixture of isomers) [Example 166, rac-(1-(((2R,3S,4R,5R)-5-(6-chloro-4-(cyclopentyalmino)-1H-pyrazolo[3,4-d]pyrimidin-1-yl)-3,4-dihydroxytetrahydrofuran-2-yl)methoxy)-2-(2-hydroxyethoxy)ethyl)phosphonic acid] |
| ≤ 100 nM | CC(CO)(OC[C@H]1O[C@@H](n2ccc3c(NC4CCCC4)nc(Cl)nc32)[C@H](O)[C@@H]1O)P(=O)(O)O (stereo partly drawn) [Example 91, (2-(((2R,3S,4R,5R)-5-(2-Chloro-4-(cyclopentylamino)-7H-pyrrolo[2,3-d]pyrimidin-7-yl)-3,4-dihydroxytetrahydrofuran-2-yl)methoxy)-1-hydroxypropan-2-yl)phosphonic acid] |
| ≤ 100 nM | O=C(O)C(OC[C@H]1O[C@@H](n2ncc3c(NC4CCCC4)nc(Cl)nc32)[C@H](O)[C@@H]1O)P(=O)(O)O (stereo partly drawn) [Example 28, 2-(((2R,3S,4R,5R)-5-(6-chloro-4-(cyclopentylamino)-1H-pyrazolo[3,4-d]pyrimidin-1-yl)-3,4-dihydroxytetrahydrofuran-2-yl)methoxy)-2-phosphonoacetic acid] |
